Measured values reported in a melting point compilation (Tetko et al.; mined from patent text by program, amines drawn as free bases though some values may be those of a salt).

With `Cc1noc(-c2ccc(Cl)cc2)c1-c1ccc(S(N)(=O)=O)cc1` the melting point was 194 to 197 °C.
`CN1C(=O)c2cccc3c(S(C)(=O)=O)ccc1c23` gave a melting point of 216 to 218 °C.
`Cc1c(-c2ccccc2)[nH]c(=O)n1C1CCN(Cc2cccc(Cl)c2)CC1` gave a melting point of 248 to 249 °C.
Compound `CC(Cc1cccc(Cl)c1)(NC=O)c1ccccc1` (stereo unspecified) has a melting point of 108 to 109 °C.
For `c1ncn(Cc2ccc3c(c2)-c2[nH]nc(-c4ccsc4)c2C3)n1`, the melting point was 243 to 245 °C.
`C#CCN=C(NC#N)SC` showed a melting point of 160 to 164 °C.
Work on `COc1ccc(OC)c(C(=O)C=Cc2cccc(C(=O)O)c2)c1` yielded a melting point of 152 to 155 °C.
For `CC(C)(C)O[C@@H]1C[C@@H](COCc2ccccc2)N(S(=O)(=O)c2ccc3ccccc3c2)C1`, the melting point was 101 to 103 °C.
Work on `COc1cc(N2CCN([C@H]3CC[C@H](c4cn(C)c5ccc(C#N)cc54)CC3)CC2)c2nccc(C)c2c1` yielded a melting point of 230 to 232 °C.
In the case of `CC(C)(C)OC(=O)n1nc(-c2cc3ccc(OCCCN4CCCC(O)C4)cc3n2C(=O)OC(C)(C)C)c2sc(-c3ccccc3)cc21` (stereo unspecified), the melting point is reported as 213 to 216 °C.
With `O=C1c2c(ccc(F)c2Cl)-n2cnc(-c3noc(CCl)n3)c2[C@@H]2CCN12` the melting point was 214 to 217 °C.
`CCOC(=O)CC(=O)c1cc2cc(F)c(F)c(F)c2nc1Cl` showed a melting point of 78 to 80 °C.
`O=C(c1ccccc1)c1ccccc1SSc1ccccc1C(=NO)c1ccccc1` showed a melting point of 191 to 193 °C.
Work on `N#Cc1cc(C(F)(F)F)ccc1Nc1ccccc1[N+](=O)[O-]` yielded a melting point of 160 to 161 °C.
Compound `COC(=O)c1c(Oc2ccc(Cl)cc2N)c2ccccc2n1Cc1ccccc1` has a melting point of 121 to 123 °C.
Compound `CCCCCCCN(CCCCCSc1nc(-c2ccccc2)c(-c2ccccc2)[nH]1)C(=S)Nc1ccc(F)cc1F` has a melting point of 116 to 118 °C.
`CCCOc1cc(CCCOc2c(CC(=O)O)cccc2OC)n(Cc2ccc(F)cc2F)n1` gave a melting point of 77 to 80 °C.
With `COC(=O)CCC(=O)N1CCc2cc(S(=O)(=O)N3CCN(c4ccc(F)cc4)CC3)ccc21` the melting point was 213 to 215 °C.
For `CC(C)(C)c1cc(N(C(=O)Cc2ccccc2C(=O)O)c2ccccc2)cc(C(C)(C)C)c1O`, the melting point was 170 to 175 °C.
With `CCNC(=O)[C@@H]1C[C@H](SCc2ccc(OC)cc2)CN1C(=O)OC(C)(C)C` the melting point was 92 to 94 °C.
Work on `COCCOC1(S(C)=O)C=CC=C(C(=O)c2cnoc2C2CC2)C1Br` (stereo unspecified) yielded a melting point of 86.2 to 87 °C.
`NC(=O)C1(CCC(=O)O)c2ccccc2-c2ccccc21` showed a melting point of 191 to 192 °C.
Compound `CN1C(=O)Cn2c(-c3ccccc3)nnc2-c2cc(Cl)ccc21` has a melting point of 204 to 206 °C.
`Cc1c(S(=O)(=O)C[N+](=O)[O-])cc2c(c1C)OC(C)(C)CC2` gave a melting point of 98.5 to 99.5 °C.
In the case of `COc1ccc(-c2ccc3ccc(NC(=O)c4ccc(C(F)(F)F)cc4)nc3n2)cc1`, the melting point is reported as 148 °C.
`CNc1cccc(Cl)n1` gave a melting point of 63.5 to 64.5 °C.
With `COc1ccc2c(c1)C(n1cc[nH]c1=S)CCC2` (stereo unspecified) the melting point was 142 to 143 °C.
For `CCCc1nc2c(C)ccnc2n1Cc1ccc(-c2ccccc2-c2nnn[nH]2)cc1`, the melting point was 200 to 202 °C.
In the case of `COc1cccc(NC(=O)NC2CN(C3CCCCC3)c3ccccc3N(CC(=O)C(C)(C)C)C2=O)c1` (stereo unspecified), the melting point is reported as 234 to 235 °C.
With `Nn1c(C(F)(F)F)cc(-c2ccc(C(F)(F)F)cc2)cc1=S` the melting point was 156 °C.
For `O=C1CCc2ccc(OCCCN3CCCN(c4cccc(Cl)c4Cl)CC3)cc2N1`, the melting point was 130 to 131 °C.
For `CCCCNC(=S)NC(Cc1ccccc1)C(=O)Nc1c(C(C)C)cccc1C(C)C` (stereo unspecified), the melting point was 214 to 215 °C.
`Cc1ccc(-c2ccc(CN3CCN(c4ccccc4)CC3)o2)cc1C` showed a melting point of 110 °C.
Compound `COc1cccc(CCNC(=O)c2ccc3c(c2)C=CC(C)(C)O3)c1` has a melting point of 105 to 110 °C.
`COCCOCCOc1ccc(NC(=O)NCc2ccc3c(c2)CN(C2CCC(=O)NC2=O)C3=O)cc1Cl` (stereo unspecified) showed a melting point of 188 to 190 °C.
`CC(F)(F)c1cccc(-n2cnc(CO)c2)c1` showed a melting point of 104 to 108 °C.
For `Cn1c(=O)c2c(ncn2CCCCCC#N)n(C)c1=O`, the melting point was 86 to 88 °C.
In the case of `O=C(O)c1sc2cc(OCc3cccnc3)ccc2c1S(=O)c1ccccc1CO` (stereo unspecified), the melting point is reported as 210 °C.
`COc1cccc2c(CCCNC3COc4c(F)ccc(C(N)=O)c4C3)c[nH]c12` (stereo unspecified) gave a melting point of 196 to 198 °C.
In the case of `CC(C)S(=O)(=O)C(C#N)=CC=CN(C)C`, the melting point is reported as 102 to 104 °C.
`O=C(O)CCc1ccc(CC(=O)OCc2ccccc2)cc1` gave a melting point of 62 to 64.5 °C.
`CC1(C)OCC(=O)Nc2ccc(-c3cc(F)cc(C#N)c3)cc21` showed a melting point of 238 to 239 °C.
Compound `O=c1c2cccc3ncc(c(=O)n1CCCCNS(=O)(=O)C(F)(F)F)n32` has a melting point of 206 to 207 °C.
Work on `COc1c(CC(=O)O)cccc1Oc1ccccc1Cl` yielded a melting point of 87 to 92 °C.
In the case of `CC(=O)Nc1ccc2c(c1)C(c1cccn1-c1cc(Cl)cc(Cl)c1)C(=O)N2` (stereo unspecified), the melting point is reported as 267 °C.
Work on `COc1ccc(C=CC(=O)O)cc1-c1cc2c(cc1OCc1cccc(O)c1)C(C)(C)CCC2(C)C` yielded a melting point of 131 to 133 °C.
Work on `CC(C)(C)OC(=O)Nc1ccccc1NC(=O)c1ccc(C(=O)O)cc1` yielded a melting point of 190 to 192 °C.
With `NCCCNC(=O)Cn1ncc(-c2ccccc2)c1-c1ccccc1` the melting point was 119 to 120 °C.
For `CCCCCCCCc1cnc(-c2ccc(C#N)cc2)nc1`, the melting point was 66.1 to 66.5 °C.
Compound `COc1ccccc1SCC1SCCN1C(=S)CC(C)=O` (stereo unspecified) has a melting point of 62 to 64 °C.
With `C=C(CC(=O)Nc1cc(Cl)cc(Cl)c1)C(=O)O` the melting point was 185 °C.
`COc1ccc(/C=C/S(=O)(=O)Nc2ccc(S(N)(=O)=O)cc2)cc1` gave a melting point of 181 to 183 °C.
With `CCOC(=O)CCNC=C(C(=O)OCC)C(=O)c1cc(F)c(F)c(F)c1F` the melting point was 96 to 97 °C.
Compound `CCN(C)C(=N)N[N+](=O)[O-]` has a melting point of 124 to 125 °C.
Work on `COC(=O)c1cc(Br)c(O)c(Br)n1` yielded a melting point of 148 to 150 °C.
For `O=C1Nc2ccccc2N(C(=O)CCCl)c2ccccc21`, the melting point was 241 to 242 °C.
Work on `Nc1ncc2[nH]c3ccccc3c2n1` yielded a melting point of 258 to 260 °C.
In the case of `CCCOc1cc(CO)n(Cc2ccc3ccccc3n2)n1`, the melting point is reported as 90 to 91 °C.
Compound `Cc1cccc(N(C)C(=S)Oc2ccc(Cl)c(C)c2)n1` has a melting point of 134 to 136 °C.
`COc1ccc(C(=O)/C=C/c2ncn(C(c3ccccc3)(c3ccccc3)c3ccccc3)c2C)c2ccccc12` gave a melting point of 235 to 237 °C.
Compound `Cc1cccn2cc(CCl)nc12` has a melting point of 115 to 117 °C.
Compound `CCc1ccc([N+](=O)[O-])cc1COC` has a melting point of 21.5 to 23.5 °C.
`[O-][N+]1=C(c2ccccc2)C2=NCCN2c2cc(N3CCNCC3)ccc21` gave a melting point of 209 to 211 °C.
With `CCCCCCCCCCCCCCCCOC(=O)c1cc(C(=O)OCCCCCCCCCCCCCCCC)cc(S(=O)(=O)O)c1` the melting point was 63 to 65 °C.
For `CCOC(=O)c1nc(-c2ccc(Cl)cc2Cl)n(-c2ccc(C(F)(F)F)cc2)c1C`, the melting point was 160 to 162 °C.
With `O=C(O)c1csc2c1OC(c1ccccc1)(C1CCCCC1)CC2=O` (stereo unspecified) the melting point was 269 to 275 °C.
`N#CC(Cc1ccc(-c2ccccc2)cc1)C(=O)N=NO` (stereo unspecified) gave a melting point of 172 °C.
With `Cc1ccc2c(c1)c(C)c1n2C(=O)C(Cc2nc[nH]c2C)CC1` (stereo unspecified) the melting point was 255 to 258 °C.
With `Clc1ccc(NN=Cc2ccc(Oc3nn(Cc4ccccc4)c4ccccc34)o2)nn1` the melting point was 200 to 202 °C.
Work on `CCCN(c1cc(Cl)ncn1)n1cccc1` yielded a melting point of 52 to 54 °C.
Work on `COC(=O)c1c(Cl)cc(Cl)cc1NC(=O)CSc1ccc(O)cc1` yielded a melting point of 149 to 151 °C.
